Test results from patent US8637562B2, “Methods for detecting sulfhydryl-containing compounds in a biological test sample” (Theravance, Inc., priority 2008, dated 2014).

Legend:
Assay type in all cases: in vitro ADME
[1] = Hydrolysis of the methyl acrylate derivative in rat plasma (monomer detection method, LC-MS/MS); conditions: rat plasma containing 1% (v/v) methyl acrylate
Procedure: Rat blood (0.3 mL) was placed into EDTA microtainer tubes containing methyl acrylate (3 μL) (1:100 volume ratio of methyl acrylate:blood). Blood and methyl acrylate were mixed by gentle rolling and tapping of the tube. After 30 minutes of reaction at room temperature, the blood samples were placed on ice until centrifugation. The blood was processed to obtain plasma by centrifugation for 4 minutes at approximately 12,000 rpm. 0.15 mL of plasma was then transferred to cluster tubes on dry ice.
[drawing 26] into a specified volume of blank rat plasma containing 1% (v/v) of methyl acrylate. Compound III-a is the methyl acrylate derivative of compound I-a. In general, the calibration curve range was 0.1 to 1000 ng/mL of compound III-a in rat plasma. […]
Multiple reaction monitoring (MRM) is the standard technique for quantitative LC-MS/MS experiments. Four specific MRM transitions for compound I-a, compound III-a, compound IV-a, and the internal standard were simultaneously monitored by LC-MS/MS. […]
(§1) [drawing 27] is the hydrolyzed form of compound III-a. […] The relevant derivative concentrations of in vivo samples were determined from the calibration curve. The monomer concentration (in ng/mL units) was calculated from the concentration of the relevant derivative multiplied by the correction factor of the ratio of the molecular weight of the monomer/molecular weight of the derivative.

[2] = Hydrolysis of the methyl acrylate derivative in dog plasma (monomer detection method, LC-MS/MS)
Procedure: (§2) Subsequent studies were conducted using dog and monkey plasma. Accordingly, similar calibration standards were prepared in dog and monkey plasma.
(§3) Plasma samples were extracted by protein precipitation. In general, 200 μL of MeCN containing a specified concentration of the internal standard was added into a 50 μL aliquot of each plasma calibration standard, QC, and in vivo plasma sample. The plasma samples were then vortexed and centrifuged. 100 μL of extract was then taken from each plasma sample and reconstituted into 200 μL of 5% MeCN/water containing 0.2% formic acid.
(§4) Multiple reaction monitoring (MRM) is the standard technique for quantitative LC-MS/MS experiments. Four specific MRM transitions for compound I-a, compound III-a, compound IV-a, and the internal standard were simultaneously monitored by LC-MS/MS. 4′-(5-{[(S)-2-(2-Carboxyethylsulfanyl)-4-methylpentanoyl amino]methyl}-2-ethoxy-4-ethylimidazol-1-ylmethyl)-3′-fluorobiphenyl-2-carboxylic acid (compound IV-a):
as §1

[3] = Hydrolysis of the methyl acrylate derivative in monkey plasma (monomer detection method, LC-MS/MS)
Procedure: as §2, §3, §4, §1

Compound: CCOc1nc(CC)c(CNC(=O)[C@H](CC(C)C)SCCC(=O)OC)n1Cc1ccc(-c2ccccc2C(=O)O)cc1F [Compound III-a, 4′-(2-ethoxy-4-ethyl-5-{[(S)-2-(2-methoxycarbonylethylsulfanyl)-4-methylpentanoylamino]methyl}imidazol-1-ylmethyl)-3′-fluorobiphenyl-2-carboxylic acid]
- hydrolysis of compound III-a to compound IV-a in plasma [1]: completely hydrolyzes to compound IV-a
- hydrolysis of compound III-a to compound IV-a in plasma [2]: not
- hydrolysis of compound III-a to compound IV-a in plasma [3]: not
